One experiment deals with histone deacetylase (HDAC Enzyme). As to the kind of experiment: Inhibition of Histone Deacetylase Enzymatic Activity (Boc-Lys(Ac)-AMC, Fluor-de-Lys developer). The experiment is classed as biochemical. Particulars: Table 10; read-out: HDAC Inhibition (IC50 μM) HDAC Enzyme. How it is done: The following protocol is used to assay the compounds of the invention.
The mixture is pre-incubated for 5 minutes at room temperature. The reaction is started by bringing the temperature to 37° C. and adding 16 μl substrate. Total reaction volume is 50 μl.
In the Tables 8, 9 and 10, A≦[…]<B≦0.1 μM; 0.1 μM<C≦1 μM; and 1 μM<D≦10 μM.
As for `CN1C(=O)CN=C(c2ccccc2)c2ccc(/C=C/C(=O)NO)cc21` [(E)-N-hydroxy-3-((Z)-1-methyl-2-oxo-5-phenyl-2,3-dihydro-1H-benzo[e][1,4]diazepin-8-yl)acrylamide], the IC50 (usually the concentration needed to halve the response being measured) is 0.1 to 1 µM.
On the same count and under the same terms, next, `O=C(/C=C/c1ccc2c(c1)NC(=O)CN=C2c1ccccc1)NO` [(E)-N-hydroxy-3-((Z)-2-oxo-5-phenyl-2,3-dihydro-1H-benzo[e][1,4]diazepin-8-yl)acrylamide]: 0.05 to 0.1 µM; `O=C(NO)c1cnc(N2CCC[C@H]2c2nc3ccccc3[nH]2)nc1` [(S)-2-(2-(1H-benzo[d]imidazol-2-yl)pyrrolidin-1-yl)-N-hydroxypyrimidine-5-carboxamide]: 0.1 to 1 µM; `O=C(Cc1ccc(CN2c3ccccc3C=Cc3ccccc32)cc1)NO` [(Z)-2-(4-((5H-dibenzo[b,f]azepin-5-yl)methyl)phenyl)-N-hydroxyacetamide]: 0.1 to 1 µM.
Take `O=C(CN1c2ccccc2C=Cc2ccccc21)NO` [(Z)-2-(5H-dibenzo[b,f]azepin-5-yl)-N-hydroxyacetamide]: the IC50 fell in the range of 1 to 10 µM.
The same measure, in the same setting: next, `O=C(NO)c1cccc(CN2c3ccccc3C=Cc3ccccc32)c1` [(Z)-3-((5H-dibenzo[b,f]azepin-5-yl)methyl)-N-hydroxybenzamide]: 0.1 to 1 µM; `O=C(CCCN1c2ccccc2C=Cc2ccccc21)NO` [(Z)-4-(5H-dibenzo[b,f]azepin-5-yl)-N-hydroxybutanamide]: 1 to 10 µM.
On the same count and under the same terms, next, `O=C1CN=C(c2ccc(C(=O)NO)cc2)c2cc(Br)sc2N1` [(Z)-4-(7-bromo-2-oxo-2,3-dihydro-1H-thieno[2,3-e][1,4]diazepin-5-yl)-N-hydroxybenzamide]: 0.1 to 1 µM.

Staying with this experiment, now noted: read-out: HDAC Inhibtion (IC50 μM) HDAC Enzyme.
Consider `O=C(NO)c1ccc(CNC2=Nc3ccccc3Oc3ccccc32)cc1` [(E)-4-((dibenzo[b,f][1,4]oxazepin-11-ylamino)methyl)-N-hydroxybenzamide], for which the IC50 is less than 0.05 µM.
With `O=C(NO)c1ccc(C2=Nc3ccccc3Oc3ccccc32)c(F)c1` [(E)-4-(dibenzo[b,f][1,4]oxazepin-11-yl)-3-fluoro-N-hydroxybenzamide], the IC50 fell in the range of 1 to 10 µM.
`O=C(NO)c1ccc(C2=Nc3ccccc3Oc3ccccc32)o1` [(E)-5-(dibenzo[b,f][1,4]oxazepin-11-yl)-N-hydroxyfuran-2-carboxamide]: the IC50 is 1 to 10 µM.
On to `O=C(NO)c1ccc(C2=Nc3ccccc3Oc3ccccc32)s1` [(E)-5-(dibenzo[b,f][1,4]oxazepin-11-yl)-N-hydroxythiophene-2-carboxamide], for which the IC50 is less than 0.05 µM.
Still for that read-out and setting: with `O=C(NO)c1ccc(C2=Nc3ccccc3Oc3ccccc32)nc1` [(E)-6-(dibenzo[b,f][1,4]oxazepin-11-yl)-N-hydroxynicotinamide] the figure was 0.1 to 1 µM.
Take `O=C(NO)c1ccc(-c2ccc3c(c2)C(N2CCOCC2)=Nc2ccccc2O3)cc1` [(E)-N-hydroxy-4-(11-morpholinodibenzo[b,f][1,4]oxazepin-2-yl)benzamide]: the concentration for half-maximal inhibition (IC50) was less than 0.05 µM.
On the same count and under the same terms, with `O=C(NO)c1cccc(C2=Nc3ccccc3Oc3ccccc32)c1` [(Z)-3-(dibenzo[b,f][1,4]oxazepin-11-yl)-N-hydroxybenzamide] the figure was 0.1 to 1 µM.
Still for that read-out and setting: next, `O=C(NO)c1ccc(C2=Nc3ccccc3Oc3cccc(F)c32)cc1` [(Z)-4-(1-fluorodibenzo[b,f][1,4]oxazepin-11-yl)-N-hydroxybenzamide]: less than 0.05 µM; `O=C(NO)c1ccc(C2=Nc3ccccc3Oc3ccc(Cl)cc32)cc1` [(Z)-4-(2-chlorodibenzo[b,f][1,4]oxazepin-11-yl)-N-hydroxybenzamide]: less than 0.05 µM; `COc1cc(F)cc2c1Oc1ccccc1N=C2c1ccc(C(=O)NO)cc1` [(Z)-4-(2-fluoro-4-methoxydibenzo[b,f][1,4]oxazepin-11-yl)-N-hydroxybenzamide]: less than 0.05 µM.
On the same count and under the same terms, next, `O=C(NO)c1ccc(C2=Nc3ccccc3Oc3ccc(F)cc32)cc1` [(Z)-4-(2-fluorodibenzo[b,f][1,4]oxazepin-11-yl)-N-hydroxybenzamide]: less than 0.05 µM.
Consider `O=C(NO)c1ccc(C2=Nc3ccccc3Oc3cc(F)ccc32)cc1` [(Z)-4-(3-fluorodibenzo[b,f][1,4]oxazepin-11-yl)-N-hydroxybenzamide], for which the IC50 was 0.1 to 1 µM.
Same read-out and setting: next, `O=C(NO)c1ccc(C2=Nc3ccccc3Oc3c(F)cccc32)cc1` [(Z)-4-(4-fluorodibenzo[b,f][1,4]oxazepin-11-yl)-N-hydroxybenzamide]: 0.1 to 1 µM; `O=C(NO)c1ccc(C2=Nc3ccccc3N(C3CC3)c3ccc(F)cc32)cc1` [(Z)-4-(5-cyclopropyl-2-fluoro-5H-dibenzo[b,e][1,4]diazepin-11-yl)-N-hydroxybenzamide]: 0.05 to 0.1 µM; `CN(O)C(=O)c1ccc(C2=Nc3ccccc3N(C3CC3)c3ccccc32)cc1` [(Z)-4-(5-cyclopropyl-5H-dibenzo[b,e][1,4]diazepin-11-yl)-N-hydroxy-N-methylbenzamide]: 1 to 10 µM.
The same measure, in the same setting: next, `O=C(NO)c1ccc(C2=Nc3ccccc3N(C3CC3)c3ccccc32)cc1` [(Z)-4-(5-cyclopropyl-5H-dibenzo[b,e][1,4]diazepin-11-yl)-N-hydroxybenzamide]: 0.1 to 1 µM; `CCN1c2ccccc2N=C(c2ccc(C(=O)NO)cc2)c2ccccc21` [(Z)-4-(5-ethyl-5H-dibenzo[b,e][1,4]diazepin-11-yl)-N-hydroxybenzamide]: 0.05 to 0.1 µM.
Regarding `O=C(NO)c1ccc(C2=Nc3ccccc3Cn3cccc32)cc1` [(Z)-4-(5H-benzo[e]pyrrolo[1,2-a][1,4]diazepin-11-yl)-N-hydroxybenzamide], the IC50 is less than 0.05 µM.
For `O=C(NO)c1ccc(C2=Nc3ccccc3Nc3ccccc32)cc1` [(Z)-4-(5H-dibenzo[b,e][1,4]diazepin-11-yl)-N-hydroxybenzamide], the IC50 is 0.1 to 1 µM.
On the same count and under the same terms, with `O=C(NO)c1ccc(C2=Nc3cccc(F)c3Oc3ccccc32)cc1` [(Z)-4-(6-fluorodibenzo[b,f][1,4]oxazepin-11-yl)-N-hydroxybenzamide] the figure was 0.05 to 0.1 µM; with `O=C(NO)c1ccc(C2=Nc3ccc(Cl)cc3Oc3ccccc32)cc1` [(Z)-4-(7-chlorodibenzo[b,f][1,4]oxazepin-11-yl)-N-hydroxybenzamide], 0.1 to 1 µM.
Consider `N#Cc1ccc2c(c1)Oc1ccccc1C(c1ccc(C(=O)NO)cc1)=N2` [(Z)-4-(7-cyanodibenzo[b,f][1,4]oxazepin-11-yl)-N-hydroxybenzamide], for which the IC50 was less than 0.05 µM.
The same measure, in the same setting: next, `O=C(NO)c1ccc(C2=Nc3cc(Cl)ccc3Nc3ccccc32)cc1` [(Z)-4-(8-chloro-5H-dibenzo[b,e][1,4]diazepin-11-yl)-N-hydroxybenzamide]: 0.05 to 0.1 µM.
Take `O=C(NO)c1ccc(C2=Nc3cc(Cl)ccc3Oc3ccccc32)cc1` [(Z)-4-(8-chlorodibenzo[b,f][1,4]oxazepin-11-yl)-N-hydroxybenzamide]: the concentration for half-maximal inhibition (IC50) is 0.1 to 1 µM.
With `N#Cc1ccc2c(c1)N=C(c1ccc(C(=O)NO)cc1)c1ccccc1O2` [(Z)-4-(8-cyanodibenzo[b,f][1,4]oxazepin-11-yl)-N-hydroxybenzamide], the IC50 lay in the range of 0.05 to 0.1 µM.
Consider `O=C(NO)c1ccc(C2=Nc3c(F)cccc3Oc3ccccc32)cc1` [(Z)-4-(9-fluorodibenzo[b,f][1,4]oxazepin-11-yl)-N-hydroxybenzamide], for which the IC50 lay in the range of 0.05 to 0.1 µM.
Same read-out and setting: with `O=C(NO)c1ccc(C2=Nc3ccccc3N(CC3CC3)c3ncccc32)cc1` [(Z)-4-(11-(cyclopropylmethyl)-11H-benzo[b]pyrido[2,3-e][1,4]diazepin-5-yl)-N-hydroxybenzamide] the figure was 1 to 10 µM.

The values are drawn from patent US8399452B2, “Dibenzo[b,f][1,4]oxazepin-11-yl-N-hydroxybenzamides as HDAC inhibitors” (Methylgene Inc., priority 2006, dated 2013).
